Experiments:
[1] = system: PLC/PRF/5; test: TH2870 sensitivity in liver cancer cells; assay type: cell-based, human; settings: AKR1C3 expression +++
[2] = Example 4-I body weight change, H460 xenograft study; assay type: in vivo, female nude mice (nu/nu); settings: iv, Q7D × 3
Description: (§1) Cells were mixed with Matrigel (50% with exception for 30% in the H460) and 0.2 ml per mouse were subcutaneously implanted to the flank area of the animals. When tumor size reached 100-150 250 mm3, mice were randomized into experimental or vehicle groups with 10 mice/group and treatment was started (Day 1). The tested compounds were formulated in 5% DMSO in D5W. The regimens employed in the examples include IP, QD×5/wk (5 days on, 2 days off) as one cycle, for a total of 2 cycles; IP, once; IP, weekly for total 3 weeks; and IV, weekly for 3 weeks. Tumor growth and body weight were measured twice a week. Tumor volume was calculated as (length×width2)/2. Drug efficacy was assessed as Tumor Growth Inhibition (TGI) and Tumor Growth Delay (TGD). TGI was defined as (1−ΔT/ΔC)×100, where ΔT/ΔC presented the ratio of the change in mean (or median, if variation within the group was relatively large) tumor volume of the treated group and of the control group. TGD was calculated as the extra days for the treated tumor to reach 500 mm3 or 1000 mm3 as compared to the control group. Animals were culled when individual tumor size reached over 2000 mm3 or mean tumor volume exceeded 1000 mm3 in the group. Data are expressed as the mean±SEM. One-way analysis of variance with Dunnett post comparison test (GraphPad Prism 4) or two-tailed student's t-test were used for analysis. A P level <0.05 was considered statistically significant.
The compound TH-2870 was tested in a H460 model. The compound was dosed follows. 1.5, 5 or 15 mg/kg, IV, weekly for 3 weeks at 250 mm^3 tumors on day 1 (10 animals per group average tumor volume), comparing with docetaxel. The antitumor effects and the safety of administration are graphically illustrated below.

[3] = Nu-Foxn1nu NU/NU, mouse, in vivo, ip, 20 mg/kg
Description: The pharmacokinetics of TH2870 were determined in Mouse/Nu-Foxn 1^nu NU/NU mice with A549 (non small cell lung), A375 (melanoma) and 786-O (renal cell) human tumor xenograft models following a single intraperitoneal dose of 20 mg/kg.

[4] = system: PC-3; test: TH2870 sensitivity in prostate cancer cell lines; assay type: cell-based; settings: Homo sapiens
[5] = Example 4-B body weight change, A549 xenograft study; assay type: in vivo, female nude mice (nu/nu); settings: 20 mg/kg ip QD × 5/wk × 2 wks
[6] = system: SK-HEP-1; test: TH2870 sensitivity in liver cancer cells; assay type: cell-based, human
[7] = Example 4-C body weight change, A375 xenograft study; assay type: in vivo, female nude mice (nu/nu); settings: 20 mpk, qd × 5 × 2, ip
Outline: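 Cells in 50% Matrigel were implanted subcutaneously in the flank, and mice (10/group) were randomized at 100-150 mm3. Compounds in 5% DMSO/D5W were dosed IP QD×5/wk ×2 cycles, IP once, IP weekly ×3 wk, or IV weekly ×3 wk. Body weight and tumour volume were measured twice weekly; TGI = (1−ΔT/ΔC)×100.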

[8] = system: A 549 non-small cell lung xenograft; test: Example 4-B antitumor efficacy, ectopic A549 NSCLC xenograft model; assay type: in vivo, female nude mice (nu/nu); settings: 20 mg/kg ip QD × 5/wk × 2 wks
[9] = system: LIXC-006; test: TH2870 sensitivity in liver cancer cells; assay type: cell-based, human; settings: AKR1C3 expression +++
[10] = system: A549 NSCLC xenograft; test: Example 4-D antitumor efficacy, ectopic A549 NSCLC xenograft model; assay type: in vivo, female nude mice (nu/nu)
From the text: Specific pathogen-free homozygous female nude mice (nu/nu, Charles River Laboratories) were used. Mice were given food and water ad libitum and housed in microisolator cages. Four to six week old animals were identified by microchips (Locus Technology, Manchester, Md., USA) at the time of the experiments. All animal studies were approved by the Institutional Animal Care and Use Committee at Threshold Pharmaceuticals, Inc.
All cell lines were from the American Type Culture Collection (ATCC, Rockville, Md., USA).
as §1
The compounds were tested in another A549 model. The compounds were dosed as follows. Daily IP dosing: 5 doses then 2 days off then 5 more doses starting at 100 mm^3 tumors on day 1 (10 animals per group average tumor volume). The antitumor effects and the safety of administration are graphically illustrated below.

[11] = system: NCI-H660; test: TH2870 sensitivity in prostate cancer cell lines; assay type: cell-based; settings: Homo sapiens
[12] = system: HCCC-9810; test: TH2870 sensitivity in liver cancer cells; assay type: cell-based, human; settings: AKR1C3 expression ++++
[13] = system: SNU-423; test: TH2870 sensitivity in liver cancer cells; assay type: cell-based, human; settings: AKR1C3 expression +
[14] = Example 4-D body weight change and lethal toxicity, A549 xenograft study; assay type: in vivo, female nude mice (nu/nu); settings: for Lethal Tox: 10 animals per group
Outline: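 Subcutaneous flank A549 xenografts in Matrigel; treatment from ~100 mm^3 tumors, 10 mice/group, compounds in 5% DMSO in D5W. Dosed IP daily, 5 days on, 2 off, then 5 more doses; body weight and tumor volume measured twice weekly, lethality recorded.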

[15] = Homo sapiens, read-out: RelIC50

## CC(OP(=O)(N1CC1)N1CC1)c1ccc([N+](=O)[O-])c(Oc2cccc(C(=O)N(C)C)c2)c1 (stereo not drawn) [Compound 2870]
[1]
  Max Inhibition %: 53.3%
[2]; 1.5 mg/kg
  Max. BW loss %: 7.6%
[2]; 5 mg/kg
  Max. BW loss %: 7.6%
[2]; 15 mg/kg
  Max. BW loss %: 5.8%
[3]
  activation of TH2870 in liver (TH2660 relative to TH2870): ~13 fold
  activation of TH2870 in tumor (TH2660 relative to TH2870): ~148 fold
[4]
  IC50: 0.161 µM
[5]
  Max. BW loss %: 1.6%
[6]; AKR1C3 expression /
  Max Inhibition %: 44.3%
[6]; Homo sapiens, SK-HEP1, AKR1C3 expression /, read-out: RelIC50
  IC50: > 1 µM
[7]
  Max. BW loss %: 0%
[8]
  TGD 500: >72 days
  TGI: 102.3%
[9]
  Max Inhibition %: 71.7%
[9]; [15]
  IC50: 0.116 µM
[10]; 20 mg/kg IP QD × 5/wk × 2 wks
  TGD 500: >85 days
  TGI: 95.0%
[10]; 40 mg/kg IV 2/wk × 2 wks
  TGD 500: >85 days
  TGI: 98.6%
[11]
  IC50: > 0.3 µM
[12]
  Max Inhibition %: 95.4%
[13]
  Max Inhibition %: 43.3%
[13]; [15]
  IC50: > 1 µM
[14]; 20 mg/kg IP QD × 5/wk × 2 wks
  Max. BW loss %: 0.3%
  Lethal Tox: 0
[14]; 40 mg/kg IV 2/wk × 2 wks
  Max. BW loss %: 2.0%
  Lethal Tox: 1

From patent US10766914B2, “DNA alkylating agents” (OBI PHARMA, INC., priority 2015, dated 2020)
